Measurements published in ChEMBL document CHEMBL3297659, “Discovery, isolation, and structure elucidation of dretamycin” (J Nat Prod, 2014).
Calls of active or inactive are those of the source. The calls are words filed in the database; no cut-off is given here.

Columns and labels:
Candida albicans [1] = assay: Antifungal activity against Candida albicans expressing DRE-2 heterozygous mutant assessed as clear zone of inhibition by agar diffusion method; assay type: functional, organism-based
Candida albicans [2] = assay: Growth stimulation in Candida albicans expressing DIP5 heterozygous mutant; assay type: functional, organism-based
Candida albicans [3] = assay: Antifungal activity against Candida albicans expressing DRE-2 heterozygous mutant; assay type: functional, organism-based
Candida albicans [4] = assay: Antifungal activity against wild-type Candida albicans assessed as hazy zone of inhibition by agar diffusion assay; assay type: functional, organism-based
[5] = Stability in aqueous solution at below pH 7.0; assay type: physicochemical; conditions: buffer
Candida = assay: Antifungal activity against Candida spp.; assay type: functional
Aspergillus fumigatus = assay: Antifungal activity against Aspergillus fumigatus; assay type: functional
Saccharomyces cerevisiae = assay: Antifungal activity against Saccharomyces cerevisiae; assay type: functional

Q: What does the source list for `NC(=O)C1=CN(O)C(C(=O)O)C1` (stereo not drawn) [listing 1 of 2 here]?
A: growth inhibition (GI) (Candida albicans [1]): Active; Activity (Candida albicans [2]): Active; Activity (Candida albicans [3]): Active; growth inhibition (GI) (Candida albicans [4]): Active

Q: Which results are given for `NC(=O)C1=CN(O)C(C(=O)O)C1` (stereo not drawn) [listing 2 of 2 here]?
A: Stability [5]: Unstable; MIC (Candida): > 8 µg/mL

Q: For `NC(=O)C1=CN(O)C(C(=O)[O-])C1.[K+]` (stereo not drawn), which MIC (Aspergillus fumigatus) is on record?
A: > 32 µg/mL

Q: What about the MIC (Saccharomyces cerevisiae) of the same compound?
A: > 32 µg/mL
